Assay results taken from patent publication US6992079B2, “Substituted 11-phenyl-dibenzazepine compounds useful for the treatment or prevention of diseases characterized by abnormal cell proliferation” (President Fellows of Harvard College, priority 1997, dated 2006).
Read-outs that look alike come from different tables or passages of the source.

Experiments:
A549 = assay: SRB antiproliferative assay; type: cell-based; details: Homo sapiens
Source text: (§1) The cells were passaged using Trypsin (Gibco).

HEPG2 = assay: SRB antiproliferative assay; type: cell-based; details: Homo sapiens
Source text: as §1

HT29 [1] = assay: SRB antiproliferative assay; type: cell-based; details: Homo sapiens
Source text: as §1

HeLa = assay: SRB antiproliferative assay; type: cell-based; details: Homo sapiens, HeLa (Cervical), 5% FCS/5 day incubation
Source text: as §1

MCF7 = assay: SRB antiproliferative assay; type: cell-based; details: Homo sapiens
Source text: as §1

U118MG = assay: SRB antiproliferative assay; type: cell-based; details: Homo sapiens, U-118-MG
Source text: as §1

[2] = tested on: H209 small lung cell carcinoma; assay: Mouse xenograft tumor growth; type: in vivo, SCID mice
[3] = tested on: Ca^2+ from intracellular pools / capacitative Ca^2+ influx; assay: Intracellular Ca2+ release and capacitative Ca2+ influx; type: cell-based; details: in vitro
[4] = tested on: dominant negative PKR mutant cells; assay: Growth of dominant negative PKR mutant cells; type: cell-based; details: FIG. 12
[5] = tested on: panel of human cancer cells; assay: In vitro screening, SRB, panel of 60 human cancer cell lines; type: cell-based
A549/ATCC = type: cell-based
COLO 205 = assay: In-Vitro Testing SRB panel: Colon Cancer; type: cell-based; details: COLO 205, 48 h
HCT-15 = assay: In-Vitro Testing SRB panel: Colon Cancer; type: cell-based; details: HCT-15, 48 h
HT29 [6] = assay: In-Vitro Testing SRB panel: Colon Cancer; type: cell-based
SF-539 = assay: In-Vitro Testing SRB panel: CNS Cancer; type: cell-based; details: SF-539, 48 h
U251 = assay: In-Vitro Testing SRB panel: CNS Cancer; type: cell-based
[7] = Homo sapiens, read-out: LC50 (the source's name)

O=C(c1ccc([N+](=O)[O-])cc1)N1Cc2ccccc2C(c2ccccc2Cl)c2ccccc21 (stereo not drawn) [Compound 28, N-(4′-Nitrobenzoyl)-11-(2′-chlorophenyl)-5,6-dihydro-11H-dibenz[b,e]azepine]
IC50 (A549; A549, A549 (Lung), 5% FCS/5 day incubation): 0.8 µM
IC50 (A549; A549, A549, 5% FCS/3 days): 1.8 µM
IC50 (HEPG2; HepG2, HEPG2 (Hepatocel), 5% FCS/5 day incubation): 0.3 µM
IC50 (HEPG2; HepG2, HEPG2, 5% FCS/3 days): < 1.25 µM
IC50 (HT29 [1]; HT-29, HT29 (Colon), 5% FCS/5 day incubation): 0.3 µM
IC50 (HT29 [1]; HT-29, HT29, 5% FCS/3 days): < 1.25 µM
IC50 (HeLa): 0.3 µM
IC50 (MCF7; MCF7, MCF7 (Breast), 5% FCS/5 day incubation): 0.6 µM
IC50 (MCF7; MCF7, MCF7, 5% FCS/3 days): 2.1 µM
IC50 (U118MG; U118MG (CNS), 5% FCS/5 day incubation): 0.5 µM
IC50 (U118MG; U118MG, 5% FCS/3 days): 1.3 µM
tumor growth [2]: significantly inhibited tumor growth
Ca^2+ release from intracellular pools [3]: releases Ca^2+ from intracellular pools
capacitative Ca^2+ influx into the cell [3]: inhibits capacitative Ca^2+ influx
resistance of dominant negative PKR mutant cells to compound [4]: resistance of dominant negative PKR mutant cells
activity against the human cell panel [5]: exhibited activity against the human cell panel
TGI (A549/ATCC; A549/ATCC, 48 h): >1.00E−04 Molar
Percent Growth (A549/ATCC; A549/ATCC, log10 conc −4.0 Molar, 48 h): 14%
Percent Growth (A549/ATCC; A549/ATCC, log10 conc −5.0 Molar, 48 h): 20%
Percent Growth (A549/ATCC; A549/ATCC, log10 conc −6.0 Molar, 48 h): 49%
Percent Growth (A549/ATCC; A549/ATCC, log10 conc −7.0 Molar, 48 h): 92%
Percent Growth (A549/ATCC; A549/ATCC, log10 conc −8.0 Molar, 48 h): 97%
GI50 (A549/ATCC; Homo sapiens, A549, 48 h): 0.937 µM
CC50 (A549/ATCC; Homo sapiens, A549/ATCC, 48 h, read-out: LC50 (the source's name)): > 100 µM
TGI (COLO 205): 1.41E−05 Molar
Percent Growth (COLO 205; log10 conc −4.0 Molar): −60%
Percent Growth (COLO 205; log10 conc −5.0 Molar): 10%
Percent Growth (COLO 205; log10 conc −6.0 Molar): 40%
Percent Growth (COLO 205; log10 conc −7.0 Molar): 77%
Percent Growth (COLO 205; log10 conc −8.0 Molar): 79%
GI50 (COLO 205; Homo sapiens): 0.845 µM
CC50 (COLO 205; [7]): > 72.5 µM
TGI (HCT-15): >1.00E−04 Molar
Percent Growth (HCT-15; log10 conc −4.0 Molar): 29%
Percent Growth (HCT-15; log10 conc −5.0 Molar): 28%
Percent Growth (HCT-15; log10 conc −6.0 Molar): 40%
Percent Growth (HCT-15; log10 conc −7.0 Molar): 86%
Percent Growth (HCT-15; log10 conc −8.0 Molar): 99%
GI50 (HCT-15; Homo sapiens): 0.608 µM
CC50 (HCT-15; [7]): > 100 µM
TGI (HT29 [6]; HT29, 48 h): >1.00E−04 Molar
Percent Growth (HT29 [6]; HT29, log10 conc −4.0 Molar, 48 h): 27%
Percent Growth (HT29 [6]; HT29, log10 conc −5.0 Molar, 48 h): 27%
Percent Growth (HT29 [6]; HT29, log10 conc −6.0 Molar, 48 h): 38%
Percent Growth (HT29 [6]; HT29, log10 conc −7.0 Molar, 48 h): 78%
Percent Growth (HT29 [6]; HT29, log10 conc −8.0 Molar, 48 h): 86%
GI50 (HT29 [6]; Homo sapiens, HT-29, 48 h): 0.505 µM
CC50 (HT29 [6]; Homo sapiens, HT-29, HT29, 48 h, read-out: LC50 (the source's name)): > 100 µM
GI50 (SF-539; Homo sapiens): 25.6 µM
CC50 (SF-539; [7]): > 100 µM
TGI (SF-539): >1.00E−04 Molar
Percent Growth (SF-539; log10 conc −4.0 Molar): 35%
Percent Growth (SF-539; log10 conc −5.0 Molar): 61%
Percent Growth (SF-539; log10 conc −6.0 Molar): 86%
Percent Growth (SF-539; log10 conc −7.0 Molar): 107%
Percent Growth (SF-539; log10 conc −8.0 Molar): 82%
GI50 (U251; Homo sapiens, U-251, 48 h): 0.476 µM
CC50 (U251; Homo sapiens, U-251, U251, 48 h, read-out: LC50 (the source's name)): > 100 µM
TGI (U251; U251, 48 h): >1.00E−04 Molar
Percent Growth (U251; U251, log10 conc −4.0 Molar, 48 h): 8%
